# Patent US7491827B2, “Aryl sulfonamides useful as inhibitors of chemokine receptor activity” (Millennium Pharmaceuticals, Inc., priority 2003, dated 2009)
# Molecular target: T1, cloned human CCR8 receptor stably expressed in L1.2 cells (Homo sapiens, UniProt P51685)
# T1 construct: expressed in transfected cells
# Test: whole cell binding screen: inhibition of biotinylated human I309 binding to CCR8 (FMAT 8100 HTS)
# Conditions: Ki of compounds to inhibit I-309 binding to CCR8, L1.2/hCCR8 cells, biotinylated human I-309, 10 point concentration response starting at 10 μM
# From the text: This whole cell binding screen evaluates the ability of compounds to inhibit biotinlyated human I309 binding to the cloned human CCR8 receptor stably expressed in L1.2 cells. Human CCR8 gene was amplified by PCR using PFU polymerase under standard conditions from human genomic DNA purchased from Stratagene. The PCR primers used were:
# The 5′ and 3′ primers contained flanking enzyme sites (Bam Hi and Not 1,respectively), which were used to subclone the gene into pcDNA3.1. […] The CCR8 vector was then transfected into L1.2 cells (murine pre-B cells) by electroporation.
# Compounds were screened using the FMAT™ 8100 HTS System (purchased from Applied Biosystems).
# A suspension was prepared of L1.2/hCCR8 cells at 4.0×10^5 cells/mL in a binding buffer (Buffer consisting of Hanks Balanced Salt Solution (without phenol red), 10 mM HEPES, 0.1% Fatty Acid Free BSA, 0.02% Sodium Azide).
# Dilution series of 10 mM stock concentrations of the test compounds were prepared in DMSO and further diluted into binding buffer defined above) to three times the final assay concentration.
# 10 point concentration response curve is constructed for each compound, starting at 10 μM (final assay concentration in Binding Buffer). […] The components were mixed in wells by covering the plate with aluminum foil and rotating for 0.5 hours. […] Average fluorescence reported for each concentration was normalized to percent inhibition based on negative (no inhibitor) and positive (100 nM excess unlabeled I309 (R and D Systems)) controls.
# T1 sequence (P51685 whole entry): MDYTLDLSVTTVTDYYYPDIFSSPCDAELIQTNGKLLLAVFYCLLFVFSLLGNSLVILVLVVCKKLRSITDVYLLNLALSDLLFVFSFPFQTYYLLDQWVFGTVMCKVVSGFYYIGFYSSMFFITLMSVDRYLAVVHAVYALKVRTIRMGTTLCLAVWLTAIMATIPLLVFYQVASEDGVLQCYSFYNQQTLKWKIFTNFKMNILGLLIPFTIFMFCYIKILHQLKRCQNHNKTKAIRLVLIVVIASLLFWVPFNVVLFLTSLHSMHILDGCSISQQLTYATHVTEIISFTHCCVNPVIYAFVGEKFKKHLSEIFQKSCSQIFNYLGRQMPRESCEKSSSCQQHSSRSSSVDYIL
row,SMILES,Ki [nM]
1,"CCNC(=O)N1CCC(NS(=O)(=O)c2ccc(NC(=O)c3ccccc3C)c3ccccc23)CC1 [Compound C-34, 4-[4-(2-Methyl-benzoylamino)-naphthalene-1-sulfonylamino]-piperidine-1-carboxylic acid ethylamide]",< 500

# Same assay, conditions: L1.2/hCCR8 cells, biotinylated human I-309, 10 point concentration response starting at 10 μM; read-out: Ki of compounds to inhibit I-309 binding to CCR8
row,SMILES,Ki [nM]
1,"CCCC(=O)N1CCC(NS(=O)(=O)c2ccc(C(=O)Nc3cccc(C)c3)c3ccccc23)CC1 [Compound F-26, 4-(1-Butyryl-piperidin-4-ylsulfamoyl)-naphthalene-1-carboxylic acid m-tolylainde]",< 500
2,"CCOC(=O)N1CCC(NS(=O)(=O)c2ccc(CNC3CCCCC3)c3ccccc23)CC1 [Compound G-8, 4-(4-Cyclohexylainnomethyl-naphthalene-1-suffonylamino)-piperidine-1-carboxylic acid ethyl ester]",< 500
3,"CC(C)(C)OC(=O)N1CCC(NS(=O)(=O)c2ccc(NC(=O)c3ccncc3)c3ccccc23)CC1 [Compound B-22, 4-{4-[(Pyridine-4-carbonyl)-amino]-naphthalene-1-sulfonylamino}-piperidine-1-carboxylic acid tert-butyl ester]",< 30000
4,"CCNC(=O)N1CCC(NS(=O)(=O)c2ccc(NC(=O)c3ccccc3C)c3c2CCCC3)CC1 [Compound E-19, 4-[4-(2-Methyl-benzoylamino)-5,6,7,8-tetrahydro-naphthalene-1-sulfonylamino]-piperidine-1-carboxylic acid ethylamide]",< 500
5,"CCCC(=O)N1C[C@H](C)C(NS(=O)(=O)c2ccc(NC(=O)c3ccccc3C)c3ccccc23)[C@@H](C)C1 (racemic) [Compound C-66, (±)-(cistrans)-N-[4-(1-Butyryl-3,5-dimethyl-piperidin-4-ylsulfamoyl)-naphthalen-1-yl]-2-methyl-benzamide]",< 500
6,"CCNC(=O)N1CCC(NS(=O)(=O)c2ccc(NC(=O)c3ccccc3C)c3c2CCC3)CC1 [Compound H-69, 4-[7-(2-Methyl-benzoylamino)-indane-4-sulfonylamino]-piperidine-1-carboxylic acid ethylamide]",< 500
7,"CCCC(=O)N1CCC(NS(=O)(=O)c2ccc(NC(=O)C3CCCN(C)C3)c3ccccc23)CC1 [Compound D-23, 1-Methyl-piperidine-3-carboxylic acid [4-(1-butyryl-piperidin-4-ylsulfamoyl)-naphthalen-1-yl]-ainde]",< 30000
8,"Cc1ccccc1C(=O)Nc1ccc(S(=O)(=O)NC2CCN(C(=O)CN(C)C)CC2)c2ccccc12 [Compound C-55, N-{4-[1-(2-Dimethylamino-acetl)-piperidin-4-ylsulfamoyl]-naphthalen-1-yl}-2-methyl-benzamide]",< 500
9,"CCCC(=O)N1CCC(NS(=O)(=O)c2cc3c(c(NC(=O)c4ccccc4Cl)c2)CCCC3)CC1 [Compound H-63, N-[3-(1-Butyryl-piperidin-4-ylsulfamoyl)-5,6,7,8-tetrahydro-naphthalen-1-yl]-2-chloro-benzamide]",< 30000
10,"CCOC(=O)N1CCC(NS(=O)(=O)c2ccc(CNCc3ccccc3C)c3ccccc23)CC1 [Compound G-11, 4-{4-[(2-Methyl-benzylamino)-methyl]-naphthalene-1-sulfonylamino}-piperidine-1-carboxylic acid ethyl ester]",< 500
11,"Cc1ccccc1C(=O)Nc1ccc(S(=O)(=O)NC2CCN(C(=O)OC(C)C)CC2)c2ccccc12 [Compound C-37, 4-[4-(2-Methyl-benzoylamino)-naphthalene-1-sulfonylamino]-piperidine-1-carboxylic acid isopropyl ester]",< 500
12,"O=C(Nc1ccc(S(=O)(=O)NC2CCNCC2)c2ccccc12)C1CC1 [Compound D-12, Cyclopropanecarboxylic acid [4-(piperidin-4-ylsulfamoyl)-naphthalen-1-yl]-amide]",< 30000
13,"CCN(CC)C(=O)N1CCC(NS(=O)(=O)c2ccc(NC(=O)c3ccccc3C)c3c2CCCC3)CC1 [Compound E-14, 4-[4-(2-Methyl-benzoylamino)-5,6,7,8-tetrahydro-naphthalene-1-sulfonylamino]-piperidine-1-carboxylic acid diethylamide]",< 1000
14,"O=C(Nc1cc(S(=O)(=O)NC2CCCCC2)cc2c1CCCC2)c1ccccc1 [Compound H-54, N-(3-Cyclohexylsulfamoyl-5,6,7,8-tetrahydro-naphthalen-1-yI)-benzamide]",< 500
15,"CC(C)(C)OC(=O)N1CCC(NS(=O)(=O)c2ccc(NC(=O)C3CCCCC3)c3ccccc23)CC1 [Compound B-19, 4-[4-(Cyclohexanecarbonyl-amno)-naphthalene-1-sulfonylamino]-piperidine-1-carboxylic acid tert-butyl ester]",< 500
16,"CCOC(=O)N1CCC(NS(=O)(=O)c2ccc(NC(=O)C3CCCCC3)c3ccccc23)CC1 [Compound B-12, 4-[4-(Cyclohexanecarbonyl-amino)-naphthalene-1-sulfonylamino]-piperidine-1-carboxylic acid ethyl ester]",< 500
17,"CC(C)(C)OC(=O)N1CCC(NS(=O)(=O)c2ccc(NC(=O)C3CC3)c3ccccc23)CC1 [Compound B-17, 4-[4-(Cyclopropanecarbonyl-amino)-naphthalene-1-sulfonylamino]-piperidine-1-carboxylic acid tert-butyl ester]",< 30000
18,"CCOC(=O)N1CCC(NS(=O)(=O)c2cccc3c(C(=O)Nc4ccccc4C)cccc23)CC1 [Compound H-28, 4-(5-o-Tolylcarbamoyl-naphthalene-1-sulfonylamino)-piperidine-1-carboxylic acid ethyl ester]",< 500
19,"O=C(Nc1ccc(S(=O)(=O)Nc2cccnc2)c2ccccc12)c1ccccc1 [Compound A-16, N-[4-(Pyridin-3-ylsulfamoyl)-naphthalen-1-yl]-benzamide]",< 30000
20,"Cc1ccccc1C(=O)Nc1ccc(S(=O)(=O)N[C@@H]2[C@H](C)CN(C(=O)N3CCCCC3)C[C@@H]2C)c2ccccc12 [Compound C-72, (±)-(cis,cis)-N-{4-[3,5-Dimethyl-1-(piperidine-1-carbonyl)-piperidin-4-ylsulfamoyl]-naphthalen-1-yl}-2-methyl-benzamide]",< 1000
21,"O=C(Nc1ccc(S(=O)(=O)NC2CCNCC2)c2ccccc12)C1CCCCC1 [Compound D-14, Cyclohexanecarboxylic acid [4-(piperidin-4-ylsulfamoyl)-naphthalen-1-yl]-amide]",< 500
22,"CCOC(=O)N1CCC(NS(=O)(=O)c2cccc3c(NC(=O)c4ccco4)cccc23)CC1 [Compound H-8, 4-{5-[(Furan-2-carbonyl)-amino]-naphthalene-1-sulfonylamino}-piperidine-1-carboxylic acid ethyl ester]",< 500
23,"CCOC(=O)N1CC[C@H](NS(=O)(=O)c2ccc(NC(=O)c3ccccc3C)c3c2CCCC3)[C@H](C)C1 (racemic) [Compound E-21, (±)-cis-3-Methyl-4-[4-(2-methyl-benzoylamino)-5,6,7,8-tetrahydro-naphthalene-1-sulfonylamino]-piperidine-1-carboxylic acid ethyl ester]",< 500
24,"CN(C)C(=O)N1CCC(NS(=O)(=O)c2ccc(C(=O)Nc3ccccc3Cl)c3ccccc23)CC1 [Compound F-23, 4-[4-(2-Chloro-phenylcarbamoyl)-naphthalene-1-sulfonylamino]-piperidine-1-carboxylic acid dimethylamide]",< 500
